# System: panel of 484 cancer cell lines
# Assay: PRISM cancer cell line profiling, 5 days
# Assay type: cell-based
# Design: AUC: unit not given beside the values
# Procedure: Cancer cell line profiling was performed using the Broad’s PRISM platform. Cell treatment and data analysis were performed as described in Yu et al[42]. Raw Luminex signal was converted to AUC values for each cell line as described. The resulting AUC profile for each compound was modeled against DepMap using the limma package in R[71]. Because hotspot mutation analysis was performed against DepMap, TP53 annotations in Fig. 6c,d are directly from DepMap.
compound,measurement,setting,value
CN1CCN(CCC(=O)Nc2ccc3c(=O)n(CC4(O)CCN(C(=O)[C@@H](CCCNC(=O)c5ccc6c(Cl)c7c(nc6c5)CCCC7)Cc5ccccc5)CC4)cnc3c2)CC1 [XL177A],AUC,MG63_BONE,1.147
same,AUC,MHHES1_BONE,0.9854
same,AUC,MIAPACA2_PANCREAS,0.7815
same,AUC,MKN1_STOMACH,1.271
same,AUC,MKN7_STOMACH,0.8494
same,AUC,MKN45_STOMACH,0.5723
same,AUC,MKN74_STOMACH,0.9306
same,AUC,MON_SOFT_TISSUE,0.2802
same,AUC,MPP89_PLEURA,1.207
same,AUC,MSTO211H_PLEURA,0.9069
same,AUC,NB1_AUTONOMIC_GANGLIA,0.8293
same,AUC,NCIH23_LUNG,0.7147
same,AUC,NCIH28_PLEURA,1.117
same,AUC,NCIH226_LUNG,0.8849
same,AUC,NCIH292_LUNG,1.012
same,AUC,NCIH322_LUNG,0.9977
same,AUC,NCIH358_LUNG,0.842
same,AUC,NCIH446_LUNG,1.125
same,AUC,NCIH460_LUNG,1.082
same,AUC,NCIH520_LUNG,1.357
same,AUC,NCIH522_LUNG,0.9146
same,AUC,NCIH596_LUNG,0.8559
same,AUC,NCIH650_LUNG,0.8175
same,AUC,NCIH661_LUNG,1.081
same,AUC,NCIH727_LUNG,1.196
same,AUC,NCIH747_LARGE_INTESTINE,0.9621
same,AUC,NCIH838_LUNG,0.9473
same,AUC,NCIH841_LUNG,0.967
same,AUC,NCIH1048_LUNG,1.077
same,AUC,NCIH1299_LUNG,1.101
same,AUC,NCIH1339_LUNG,0.9923
same,AUC,NCIH1355_LUNG,0.948
same,AUC,NCIH1373_LUNG,0.8577
same,AUC,NCIH1435_LUNG,1.156
same,AUC,NCIH1437_LUNG,0.9262
same,AUC,NCIH1563_LUNG,0.7202
same,AUC,NCIH1568_LUNG,0.8953
same,AUC,NCIH1573_LUNG,1.235
same,AUC,NCIH1581_LUNG,0.9829
same,AUC,NCIH1623_LUNG,0.9673
same,AUC,NCIH1648_LUNG,0.9409
same,AUC,NCIH1650_LUNG,0.8271
same,AUC,NCIH1651_LUNG,1.042
same,AUC,NCIH1693_LUNG,0.9884
same,AUC,NCIH1703_LUNG,1.041
same,AUC,NCIH1792_LUNG,1.0161
same,AUC,NCIH1793_LUNG,1.096
same,AUC,NCIH1838_LUNG,0.9778
same,AUC,NCIH1915_LUNG,0.9037
same,AUC,NCIH1944_LUNG,0.9736
same,AUC,NCIH1975_LUNG,0.923
same,AUC,NCIH2009_LUNG,0.7912
same,AUC,NCIH2023_LUNG,1.0442
same,AUC,NCIH2030_LUNG,1.09
same,AUC,NCIH2052_PLEURA,0.7196
same,AUC,NCIH2077_LUNG,1.06
same,AUC,NCIH2087_LUNG,0.9147
same,AUC,NCIH2110_LUNG,1.049
same,AUC,NCIH2122_LUNG,0.751
same,AUC,NCIH2126_LUNG,0.9474
same,AUC,NCIH2170_LUNG,1.032
same,AUC,NCIH2172_LUNG,1.068
same,AUC,NCIH2228_LUNG,0.9446
same,AUC,NCIH2347_LUNG,0.9414
same,AUC,NCIH2444_LUNG,0.981
same,AUC,NCIH2452_PLEURA,1.231
same,AUC,NCIN87_STOMACH,1.289
same,AUC,NUGC3_STOMACH,0.9146
same,AUC,NUGC4_STOMACH,0.8113
same,AUC,OAW42_OVARY,0.9061
same,AUC,OC314_OVARY,1.051
same,AUC,OC316_OVARY,1.076
same,AUC,OE19_OESOPHAGUS,1.108
same,AUC,OE21_OESOPHAGUS,0.9739
same,AUC,OE33_OESOPHAGUS,1.005
same,AUC,ONCODG1_OVARY,0.9121
same,AUC,ONS76_CENTRAL_NERVOUS_SYSTEM,0.7482
same,AUC,OSRC2_KIDNEY,0.9599
same,AUC,OUMS23_LARGE_INTESTINE,0.9942
same,AUC,OV56_OVARY,0.9082
same,AUC,OVCAR8_OVARY,1.07
same,AUC,OVISE_OVARY,0.8469
same,AUC,OVK18_OVARY,0.8349
same,AUC,OVSAHO_OVARY,0.9469
same,AUC,OVTOKO_OVARY,1.103
same,AUC,PANC1_PANCREAS,0.8692
same,AUC,PANC0203_PANCREAS,0.8971
same,AUC,PANC0327_PANCREAS,1.196
same,AUC,PANC0403_PANCREAS,1
same,AUC,PANC0813_PANCREAS,0.9365
same,AUC,PANC1005_PANCREAS,1.142
same,AUC,PATU8902_PANCREAS,1.125
same,AUC,PATU8988S_PANCREAS,1.237
same,AUC,PATU8988T_PANCREAS,0.9888
same,AUC,PC3_PROSTATE,0.9272
same,AUC,PC14_LUNG,0.8983
same,AUC,PECAPJ15_UPPER_AERODIGESTIVE_TRACT,0.8461
same,AUC,PECAPJ41CLONED2_UPPER_AERODIGESTIVE_TRACT,0.7551
same,AUC,PECAPJ49_UPPER_AERODIGESTIVE_TRACT,0.693
same,AUC,PK1_PANCREAS,1.009
same,AUC,PK45H_PANCREAS,1.081
same,AUC,PK59_PANCREAS,1.041
same,AUC,PLCPRF5_LIVER,1.069
same,AUC,PSN1_PANCREAS,0.9727
same,AUC,QGP1_PANCREAS,1.095
same,AUC,RCC10RGB_KIDNEY,1.14
same,AUC,RCM1_LARGE_INTESTINE,1.19
same,AUC,RD_SOFT_TISSUE,0.8902
same,AUC,RERFLCAD1_LUNG,1.191
same,AUC,RERFLCAD2_LUNG,1.139
same,AUC,RERFLCAI_LUNG,0.8829
same,AUC,RERFLCKJ_LUNG,0.8002
same,AUC,RERFLCMS_LUNG,1.045
same,AUC,RH30_SOFT_TISSUE,0.9309
same,AUC,RKN_SOFT_TISSUE,0.8534
same,AUC,RKO_LARGE_INTESTINE,0.7552
same,AUC,RL952_ENDOMETRIUM,0.9781
same,AUC,RMGI_OVARY,0.9543
same,AUC,RMUGS_OVARY,0.8888
same,AUC,RT4_URINARY_TRACT,1.356
same,AUC,RT112_URINARY_TRACT,1.227
